The nature of this data set: recombinant UMI read abundance after kanamycin selection (control-corrected) (log10(CPM+1)); higher = more efficient recombination; extreme values may be limits of the assay; sequences stand for … in AGTGCAGAGAAAATCGGCCAGTTTTCTCTGCCTGCAGTCCGCATGCCGTGGGACCCCTTGGGTTCTAACCTGTTGCCTAGATTTATGCAGCGGACTGCCTTTCTCCCAAAGTGATAAACCGG…AGGTTGGTTTCACT; site = the 11-nt donor. In a few lines:
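Two replicates each of selected and unselected plating were used in this pooled Escherichia coli screen of donor and donor-binding-loop pairs for the IS621 bridge recombinase. Selection was with IPTG (0.07 mM) and kanamycin. Counts of recombinant UMIs, amplified across the donor–target junction, were converted to CPM, averaged, scaled by control-derived factors and reported as log10(CPM+1).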
With “AGCCGTACATGGACCGGTTTTCCCGGTAATCCGTATTTGCT (site CGCCGTACTAG)”, the “recombinant UMI read abundance (log10)” value was 0.697. Turning to “AGCCGTACATGGACCGGTTTTCCCGGTAATCCGTATTTGCT (site GGCCGTACTAG)”, the “recombinant UMI read abundance (log10)” value amounted to 0. As to “AGCCGTACATGGACCGGTTTTCCCGGTAATCCGTATTTGCT (site TGCCGTACTAG)”, the “recombinant UMI read abundance (log10)” value worked out at 1.18. With “AGCCTAACATGGACCGGTTTTCCCGGTAATCCGTATTTGGG (site AGCCTAACTCC)”, the “recombinant UMI read abundance (log10)” value worked out at 0.0227. With “AGCCTAACATGGACCGGTTTTCCCGGTAATCCGTATTTGTT (site AGCCTAACTAA)” the figure was 0.00538; with “AGCCTAACATGGACCGGTTTTCCCGGTAATCCGTATTTGTT (site AGCCTACCTAA)”, 0.024. For the sequence “AGCCTAACATGGACCGGTTTTCCCGGTAATCCGTATTTGTT (site AGCCTAGCTAA)”, the “recombinant UMI read abundance (log10)” value was 0.0126.

As for “AGCCTAACATGGACCGGTTTTCCCGGTAATCCGTATTTGTT (site AGCCTATCTAA)”, the “recombinant UMI read abundance (log10)” value is 0.00871. “AGCCTAGCATGGACCGGTTTTCCCGGTAATCCGTATTTGTT (site AACCTAGCTAA)”: the “recombinant UMI read abundance (log10)” value was 0.00661.

In the case of “AGCCTAGCATGGACCGGTTTTCCCGGTAATCCGTATTTGTT (site ACCCTAGCTAA)”, the “recombinant UMI read abundance (log10)” value worked out at 0.0311. With “AGCCTAGCATGGACCGGTTTTCCCGGTAATCCGTATTTGTT (site AGACTAGCTAA)” the figure was 0.00397.

On to “AGCCTAGCATGGACCGGTTTTCCCGGTAATCCGTATTTGTT (site AGCATAGCTAA)”, for which the “recombinant UMI read abundance (log10)” value is 0.00842. To “AGCCTAGCATGGACCGGTTTTCCCGGTAATCCGTATTTGTT (site AGCCAAGCTAA)” belongs 0.0196. As for “AGCCTAGCATGGACCGGTTTTCCCGGTAATCCGTATTTGTT (site AGCCCAGCTAA)”, the “recombinant UMI read abundance (log10)” value amounted to 0.00418. As to “AGCCTAGCATGGACCGGTTTTCCCGGTAATCCGTATTTGTT (site AGCCGAGCTAA)”, the “recombinant UMI read abundance (log10)” value was 0.0175.

On to “AGCCTAGCATGGACCGGTTTTCCCGGTAATCCGTATTTGTT (site AGCCTAACTAA)”, for which the “recombinant UMI read abundance (log10)” value came out at 0.0384. Take “AGCCTAGCATGGACCGGTTTTCCCGGTAATCCGTATTTGTT (site AGCCTACCTAA)”: the “recombinant UMI read abundance (log10)” value came out at 0.0078. As for “AGCCTAGCATGGACCGGTTTTCCCGGTAATCCGTATTTGTT (site AGCCTAGCTAA)”, the “recombinant UMI read abundance (log10)” value amounted to 0.0154. As to “AGCCTAGCATGGACCGGTTTTCCCGGTAATCCGTATTTGTT (site AGCCTAGCTAC)”, the “recombinant UMI read abundance (log10)” value was determined as 0. On to “AGCCTAGCATGGACCGGTTTTCCCGGTAATCCGTATTTGTT (site AGCCTAGCTAG)”, for which the “recombinant UMI read abundance (log10)” value amounted to 0. With “AGCCTAGCATGGACCGGTTTTCCCGGTAATCCGTATTTGTT (site AGCCTAGCTAT)” the figure was 0.0124; with “AGCCTAGCATGGACCGGTTTTCCCGGTAATCCGTATTTGTT (site AGCCTAGCTCA)”, 0.0329; with “AGCCTAGCATGGACCGGTTTTCCCGGTAATCCGTATTTGTT (site AGCCTAGCTGA)”, 0.

For the sequence “AGCCTAGCATGGACCGGTTTTCCCGGTAATCCGTATTTGTT (site AGCCTAGCTTA)”, the “recombinant UMI read abundance (log10)” value is 0.00455. On to “AGCCTAGCATGGACCGGTTTTCCCGGTAATCCGTATTTGTT (site AGCCTATCTAA)”, for which the “recombinant UMI read abundance (log10)” value was 0.00805. For “AGCCTAGCATGGACCGGTTTTCCCGGTAATCCGTATTTGTT (site AGCCTCGCTAA)”, the “recombinant UMI read abundance (log10)” value came to 0.0288.

For the sequence “AGCCTAGCATGGACCGGTTTTCCCGGTAATCCGTATTTGTT (site AGCCTGGCTAA)”, the “recombinant UMI read abundance (log10)” value was determined as 0.0296. To “AGCCTAGCATGGACCGGTTTTCCCGGTAATCCGTATTTGTT (site AGCCTTGCTAA)” belongs 0.0186; to “AGCCTAGCATGGACCGGTTTTCCCGGTAATCCGTATTTGTT (site AGCGTAGCTAA)”, 0.00795. With “AGCCTAGCATGGACCGGTTTTCCCGGTAATCCGTATTTGTT (site AGCTTAGCTAA)” the figure was 0.0228; with “AGCCTAGCATGGACCGGTTTTCCCGGTAATCCGTATTTGTT (site AGGCTAGCTAA)”, 0.00253; with “AGCCTAGCATGGACCGGTTTTCCCGGTAATCCGTATTTGTT (site AGTCTAGCTAA)”, 0.0113.

Turning to “AGCCTAGCATGGACCGGTTTTCCCGGTAATCCGTATTTGTT (site ATCCTAGCTAA)”, the “recombinant UMI read abundance (log10)” value amounted to 0.0142. Turning to “AGCCTAGCATGGACCGGTTTTCCCGGTAATCCGTATTTGTT (site CGCCTAGCTAA)”, the “recombinant UMI read abundance (log10)” value is 0.00222. Turning to “AGCCTAGCATGGACCGGTTTTCCCGGTAATCCGTATTTGTT (site GGCCTAGCTAA)”, the “recombinant UMI read abundance (log10)” value was 0.0159. As to “AGCCTAGCATGGACCGGTTTTCCCGGTAATCCGTATTTGTT (site TGCCTAGCTAA)”, the “recombinant UMI read abundance (log10)” value worked out at 0.00782. To “AGCCTGGCATGGACCGGTTTTCCCGGTAATCCGTATTTGAC (site AGCCTGGCTGT)” belongs 0; to “AGCCTTTCATGGACCGGTTTTCCCGGTAATCCGTATTTGAA (site AGCCTTTCTAT)”, 0. As to “AGCCTTTCATGGACCGGTTTTCCCGGTAATCCGTATTTGAA (site AGCCTTTCTCT)”, the “recombinant UMI read abundance (log10)” value came to 0.00501. Turning to “AGCCTTTCATGGACCGGTTTTCCCGGTAATCCGTATTTGAA (site AGCCTTTCTGT)”, the “recombinant UMI read abundance (log10)” value was determined as 0.

As for “AGCCTTTCATGGACCGGTTTTCCCGGTAATCCGTATTTGAA (site AGCCTTTCTTT)”, the “recombinant UMI read abundance (log10)” value amounted to 0. Regarding “AGCCTTTCATGGACCGGTTTTCCCGGTAATCCGTATTTGAC (site AACCTTTCTGT)”, the “recombinant UMI read abundance (log10)” value worked out at 0. As for “AGCCTTTCATGGACCGGTTTTCCCGGTAATCCGTATTTGAC (site ACCCTTTCTGT)”, the “recombinant UMI read abundance (log10)” value is 0.

“AGCCTTTCATGGACCGGTTTTCCCGGTAATCCGTATTTGAC (site AGACTTTCTGT)”: the “recombinant UMI read abundance (log10)” value worked out at 0. Consider “AGCCTTTCATGGACCGGTTTTCCCGGTAATCCGTATTTGAC (site AGCATTTCTGT)”, for which the “recombinant UMI read abundance (log10)” value came to 0.00674. To “AGCCTTTCATGGACCGGTTTTCCCGGTAATCCGTATTTGAC (site AGCCATTCTGT)” belongs 0. With “AGCCTTTCATGGACCGGTTTTCCCGGTAATCCGTATTTGAC (site AGCCCTTCTGT)” the figure was 0. Take “AGCCTTTCATGGACCGGTTTTCCCGGTAATCCGTATTTGAC (site AGCCGTTCTGT)”: the “recombinant UMI read abundance (log10)” value was found to be 0.

On to “AGCCTTTCATGGACCGGTTTTCCCGGTAATCCGTATTTGAC (site AGCCTATCTGT)”, for which the “recombinant UMI read abundance (log10)” value stood at 1.73. On to “AGCCTTTCATGGACCGGTTTTCCCGGTAATCCGTATTTGAC (site AGCCTCTCTGT)”, for which the “recombinant UMI read abundance (log10)” value amounted to 0.

As for “AGCCTTTCATGGACCGGTTTTCCCGGTAATCCGTATTTGAC (site AGCCTGTCTGT)”, the “recombinant UMI read abundance (log10)” value was 0.

For the sequence “AGCCTTTCATGGACCGGTTTTCCCGGTAATCCGTATTTGAC (site AGCCTTACTGT)”, the “recombinant UMI read abundance (log10)” value was 0.

The values are drawn from the supplement of paper PMC11208160.
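Note: IS621 bridge recombinase in Escherichia coli cells against a fixed T5 target plasmid.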
